In patent US7105635B2, “Cyclic beta-sheet peptides useful as apoptotic/cytotoxic cancer agents” (The University of Toledo, priority 2002, dated 2006):
“Also recorded” adds a separate entry of the source. Read-outs that look alike come from different tables or passages of the source. Positions of bridges follow the written chain, without caps; N, C: chain ends. Residues, ends and D or L forms follow the SMILES beside them. No end group written: not given here. *: point of attachment. Biotin = O=C1N[C@H]2[C@H](CS[C@H]2CCCCC(=O)*)N1

Key:
CEM cells [1] = test: Annexin-V-FITC flow cytometry of phosphatidyl serine exposure (apoptosis), CEM cells; assay type: cell-based, human; conditions: 20 μM, control experiments
Method: FIGS. 10a–d are graphs showing comparisons of phosphatidyl serine exposure on the outer surface of CEM cells following a 2.5-hour incubation with or without 40 μM cyclized L1AD3. After incubation, cells were washed twice with cold PBS prior to adding FITC-conjugated Annexin-V. Flow cytometry using a B-D FACSCalibur was performed, and 10,000 cells were analyzed using the B-D CellQuest program. Individual cells are represented in the dot plots on the left (FIGS. 10a and 10c), and histograms of the same data are on the right (FIGS. 10b and d). Whereas untreated tumor cells show less than 6% spontaneous apoptosis (FIG. 10c, lower left quadrant), 93% of cells treated with L1AD3 undergo apoptosis after 2.5 hours (FIG. 10d, lower right quadrant).
Flow cytometry using fluorescent Annexin-V distinguishes cells with externalized phosphatidyl serine. As long as the cell's plasma membrane remains intact, fluorescent dyes such as ethidium bromide or propidium iodide are excluded. A 40 μM concentration of L1AD3 caused approximately 93% of CEM cells to become Annexin-V-positive within 2.5 hours, which is unusually short for signs of apoptosis to occur. Camptothecin, a cancer chemotherapeutic agent administered in control experiments at 20 μM, caused only 33% of the cells to appear apoptotic. […]

CEM cells [2] = test: cell permeability to ethidium bromide / propidium iodide, CEM cells; assay type: cell-based, human; conditions: for cell permeability to ethidium bromide or propidium iodide: CEM cells
Method: FIG. 11 is a graph showing changes in cell permeability to ethidium bromide following incubation with L1AD3 or with native CTX. CEM cells (10^6/ml) were incubated in quartz cuvets in a Shimidzu fluorescence spectrophotometer with 1 μg/ml ethidium bromide. Either CTX at a final concentration of 1.6 μM or L1AD3 at a final concentration of 40 μM was added, and readings were taken at 5-minute intervals, with excitation at 526 nm and emission measured at 608 nm.
Flow cytometry using fluorescent Annexin-V distinguishes cells with externalized phosphatidyl serine. As long as the cell's plasma membrane remains intact, fluorescent dyes such as ethidium bromide or propidium iodide are excluded. A 40 μM concentration of L1AD3 caused approximately 93% of CEM cells to become Annexin-V-positive within 2.5 hours, which is unusually short for signs of apoptosis to occur. Camptothecin, a cancer chemotherapeutic agent administered in control experiments at 20 μM, caused only 33% of the cells to appear apoptotic.
Since whole CTX can rapidly permeabilize leukemic T-lymphocytes, separate experiments using a fluorescence spectrophotometer were applied to examine changes in plasma membrane permeability to ethidium bromide following exposure of CEM cells either to L1AD3 or to CTX.

[3] = test system: human leukemic T-lymphocytes; conditions: previous comparisons of native toxins (Stevens-Truss & Hinman, 1997); cited from earlier work
[4] = test system: embryonic chicken heart cells; test: beating of heart cells; assay type: cell-based; conditions: for time to cessation of beating of heart cells: 1 μM
Method: (§1) The L1AD3 peptide composition, Seq. […] It is believed that there is an absence of the L1AD3 protein receptor on the surface of normal human white blood cells, whereas the L1AD3 protein receptor target is found in the surface of leukemic T-cells.
(§2) The L1AD3 peptide stops tumor cell division in both Jurkat and CEM cells with an EC50 of approximately 5 μM, as shown in FIG. 8. This is indicated by the inhibition of thymidine incorporation into DNA. […] In contrast to CTX, which rapidly depolarized skeletal muscle (Dufton and Hider, 1991), and which at 1 μM concentrations causes cessation of beating of embryonic chicken heart cells within 5–10 seconds, the L1AD3 peptide at 40 μM concentrations has no effect upon the beating of heart cells over 2 hours of observation. Therefore, it is believed that the L1AD3 peptide, along with the other seven peptides, is not harmful to the heart, in contrast to native CTX.

CEM cells [5] = test: luciferin/luciferase bioluminescence assay of total ATP in CEM cells; assay type: cell-based, human
Method: FIG. 9 is a graph showing the amounts of total ATP present in cell lysates following incubation of CEM cells with peptide analogs. Cyclized peptides were added at double their final concentration, which was 20 μM, to triplicate wells of a black 96-well reaction plate. CEM cells (50,000 per well) were added in the same volume, and the plate was incubated 30 minutes at 37 degrees. Lysis buffer (Sigma) was added, followed by luciferin/luciferase assay buffer (Molecular Probes). The plate was sealed with a clear plastic film and read using a Packard Top-Count reader. Cells with medium only had ATP levels of 1073±160 in arbitrary luminescence units. Peptide analogs are identified by single amino acid modifications.
Changes in cellular energy levels can contribute to the process of cytotoxicity. ATP was measured using a 96-well luciferin/luciferase bioluminescence assay system and found a 60% reduction in ATP after 30 minutes' incubation of CEM cells with 20 μM L1AD3, as shown in FIG. 9. While somewhat large, this reduction of ATP is consistent with apoptosis, inasmuch as necrosis tends to occur when ATP levels drop to below 30% of control.

CEM cells [6] = test: biotin-avidin sorbant binding assay, adherent CEM cells; parameters: species or system human; conditions: for binding after pretreatment of cells with trypsin: solid-phase assay
Method: CEM cells were held on the surface of 96-well plates previously coated with anti-human MHC-1 antibody (anti-HLA-A,B,C). After plates containing adherent cells were blocked with bovine albumin and washed with PBS, biotinylated L1AD3, either alone (upper trace) or in a 1:1 ratio with non-biotinylated L1AD3 (lower trace), was added to triplicate wells to achieve the indicated final concentrations. After a 1-hour incubation at 37 degrees, plates were washed three times with PBS, and avidin-HRP was added. Enzyme substrate (ABTS) was added, and color development at 415 nm was monitored using an ELISA plate reader with printed output.
The lower two traces in the figure were developed as described above for FIG. 12, except that the target cells were human PBL's that had been isolated about 4 hours before the assay. […] In this case, 0.0125% trypsin was incubated with adherent cells for 10 min, followed by three washes and subsequent addition of soybean trypsin inhibitor.
(§3) A biotin-avidin sorbant assay, similar to an ELISA procedure was performed to measure binding. In this assay, horseradish peroxidase-conjugated avidin was employed rather than an enzyme-linked second antibody. Mouse anti-human MHC-1 (anti HLA-A,-B,-C) antibody was used to hold CEM or normal human cells to the surface of 96-well microtiter plates.
(§4) In order to investigate the nature of the binding site for L1AD3 on tumor cells, trypsin was added to the cells and subsequently quenched by adding enzyme inhibitor prior to measurements of binding, using biotinylated peptide in either the solid-phase or the fluorescent assay described above.

[7] = test system: normal human peripheral blood lymphocytes; test: biotin-avidin sorbant binding assay, normal human PBL's; conditions: with or without non-biotinylated L1AD3
Method: FIG. 13 is a graph showing inhibition of specific binding of biotinylated L1AD3 to normal human peripheral blood lymphocytes by non-biotinylated L1AD3, and abolition of binding by pretreatment of CEM cells with trypsin. The lower two traces in the figure were developed as described above for FIG. 12, except that the target cells were human PBL's that had been isolated about 4 hours before the assay. […] In this case, 0.0125% trypsin was incubated with adherent cells for 10 min, followed by three washes and subsequent addition of soybean trypsin inhibitor.
as §3

CEM cells [8] = test system: CEM cells
CEM cells [9] = test system: CEM cells; remark: listed apart in the source
Method: To investigate peptide binding to cell surfaces, the peptide was modified by N-terminal biotinylation. […] A biotin-avidin sorbant assay, similar to an ELISA procedure was performed to measure binding. In this assay, horseradish peroxidase-conjugated avidin was employed rather than an enzyme-linked second antibody. Mouse anti-human MHC-1 (anti HLA-A,-B,-C) antibody was used to hold CEM or normal human cells to the surface of 96-well microtiter plates.
as §4

Jurkat cells = test: thymidine incorporation into DNA of Jurkat cells; assay type: cell-based, human; conditions: read-out: EC50, inhibition of thymidine incorporation into DNA
Method: as §2

normal human cells = test: permeabilization of normal human cells (propidium iodide, ethidium bromide, trypan blue); assay type: cell-based; conditions: ethidium bromide or trypan blue
Description: as §1

[10] = test system: normal human peripheral white blood cells (PBL's); test: Annexin-V binding / phosphatidyl serine externalization, normal human white blood cells; assay type: cell-based
CEM cells [11] = test: [3H]-thymidine incorporation into DNA of CEM cells; assay type: cell-based, human; conditions: for EC50: CEM cells, FIG. 8, read-out: EC50, inhibition of thymidine incorporation into DNA
Method: FIG. 8 is a graph showing percent inhibition of thymidine incorporation as a function of peptide concentration. Each well of a microtiter plate received 200,000 CEM cells in log phase of growth, suspended in 50 μl complete medium. The same volume of diluted peptide, either linear or cyclized, was added to achieve the final concentrations shown. After a 1 -hour incubation at 37 degrees C., 1 μCi of [^3H]-thymidine in 25 μl medium was added, and the plates were incubated another 3 hours prior to harvesting. Control cells were incubated without either peptide, but with the same volume of medium.
The peptide called L1AD3, Seq. ID No. 1, prevents the proliferation of cancerous human T-lymphocytes (CEM cell line) by inhibiting incorporation of thymidine into DNA.
as §2

For CC[C@@]1(O)C(=O)OCc2c1cc1n(c2=O)Cc2cc3ccccc3nc2-1 [Camptothecin], the “cells apoptotic (Annexin-V)” value (CEM cells [1]) was 33%, the “cells apoptotic (Annexin-V)” value (CEM cells [1]; listed as camptothecin) was 23% and the “cell permeability to ethidium bromide or propidium iodide” value (CEM cells [2]) was “neither L1AD3 nor camptothecin caused increases in cell permeability”.
For “LKCNKLVPLFYKTCPAGKNLCYKMFMVATPKVPVKRGCIDVCPKSSLL VKYVCCNTDRCN (LKCNKLVPLFYKTCPAGKNLCYKMFMVATPKVPVKRGCIDVCPKSSLLVKYVCCNTDRCN; Naja naja atra) [CTX, parent 60-amino acid cytotoxin purified from the Taiwan cobra, Naja naja atra]”, the “time until cells began to admit ethidium bromide” value (CEM cells [2]; 1.6 μM, fluorescence spectrophotometer) was no more than 15 min, the “time to induced permeability to propidium iodide” value (CEM cells [2]; 10 μM, fluorescence microscopy) was no more than 30 s and the “cell permeability to ethidium bromide or propidium iodide” value (CEM cells [2]) was “rapidly became permeable”. For the same molecule, the “toxicity toward human leukemic T-lymphocytes” value [3] was “highly toxic”, the “time to cessation of beating of heart cells” value [4] was 5 to 10 s and the “time to cessation of beating of heart cells” value ([4]; listed as “parent” cardiotoxin) was 10 to 30 s.
In the case of “Biotin-LKCNKLVPLFYKTC (cysteine pairing not given here) [biotinylated L1AD3]”, the “ability to reduce ATP levels in cancer cells” value (CEM cells [5]) is reported as “retains its ability to reduce ATP levels”, the “binding to human cancer cells” value (CEM cells [6]) is reported as “bound human cancer cells; also recorded: preserves its ability to bind cancer cells” and the Kd (CEM cells [6]; saturable binding, read-out: apparent KD of binding to CEM cells) is reported as roughly 6 µM. The “binding after pretreatment of cells with trypsin” value (shortened to “binding after pretreatment”) (CEM cells [6]) was “abolished”, the “binding after pretreatment” value (CEM cells [6]; listed as biotinylated peptide) was “abolished binding” and the “binding to normal human white blood cells / PBL's” value [7] was “did not bind appreciably”. The “other activities after biotinylation” value (CEM cells [8]) was “significantly diminished”, the “fluorescence increase over cells not incubated with biotinylated peptide” value (CEM cells [9]; avidin-FITC, CEM cells in suspension) was 48% and the “binding after pretreatment” value (CEM cells [9]; fluorescent assay) was “abolished binding”.
In the case of CC(C)C[C@@H]1NC(=O)[C@H](CCCCN)NC(=O)[C@H](CC(N)=O)NC(=O)[C@@H](NC(=O)[C@H](CCCCN)NC(=O)[C@@H](N)CC(C)C)CSSC[C@@H](C(=O)O)NC(=O)[C@H]([C@@H](C)O)NC(=O)[C@H](CCCCN)NC(=O)[C@H](Cc2ccc(O)cc2)NC(=O)[C@H](Cc2ccccc2)NC(=O)[C@H](CC(C)C)NC(=O)[C@@H]2CCCN2C(=O)[C@H](C(C)C)NC1=O [L1AD3, Leu-Lys-Cys-Asn-Lys-Leu-Val-Pro-Leu-Phe-Tyr-Lys-Thr-Cys] (H-LKCNKLVPLFYKTC-OH; disulfide 3-14), the EC50 (Jurkat cells) is reported as roughly 5 µM, the “effect upon the beating of heart cells” value ([4]; 40 μM, 2 hours) is reported as “no effect” and the “permeabilizing effect on normal human cells” value (normal human cells) is reported as “no permeabilizing effect”. The “externalization of phosphatidyl serine / Annexin-V binding in normal human white blood cells” value ([10]; 40 μM peptide (same concentration as CEM test)) was “did not induce externalization of phosphatidyl serine; also recorded: not affected above background levels”, the “Annexin-V labelling of T-cells, B-cells and macrophages among PBL's” value ([10]; 1-hour incubation, double-labeled with anti CD-3, CD-19, CD-14) was “all were within background levels” and the EC50 (CEM cells [11]) was roughly 5 µM.
In the case of CC(C)C[C@H](NC(=O)[C@H](CCCCN)NC(=O)[C@H](CC(N)=O)NC(=O)[C@H](CS)NC(=O)[C@H](CCCCN)NC(=O)[C@@H](N)CC(C)C)C(=O)N[C@H](C(=O)N1CCC[C@H]1C(=O)N[C@@H](CC(C)C)C(=O)N[C@@H](Cc1ccccc1)C(=O)N[C@@H](Cc1ccc(O)cc1)C(=O)N[C@@H](CCCCN)C(=O)N[C@H](C(=O)N[C@@H](CS)C(=O)O)[C@@H](C)O)C(C)C [Linear L1AD3] (H-LKCNKLVPLFYKTC-OH; N-terminus and C-terminus assumed), the “EC50 of linear peptide relative to cyclized counterpart” value (CEM cells [11]) is reported as “more than eight times” and the EC50 (CEM cells [11]) is reported as roughly 43 µM.
